Measurements as given in PMC12300041, “Tricyclic Isatin Derivatives as Anti-Inflammatory Compounds with High Kinase Binding Affinity” (Molecules, 2025).

Assays:
Test in all cases: KINOMEscan
Type in all cases: binding
MARK2 = molecular target: T1, MARK2 (Homo sapiens, UniProt Q7KZI7)
T1 construct: purchased Eurofins DiscoverX KINOMEscan
Outline: (§1)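 Read-out is qPCR of kinase not bound to the test compound, recovered by capture on an immobilized affinity ligand after a 1 h room-temperature binding step. Dissociation constants came from 12 half-log dilutions starting at 33 μM.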

LYN = molecular target: T2, LYN (Homo sapiens, UniProt P07948)
T2 construct: purchased Eurofins DiscoverX KINOMEscan
Outline: as §1

FES = molecular target: T3, FES (Homo sapiens, UniProt P07332)
T3 construct: purchased Eurofins DiscoverX KINOMEscan
T3 sequence (P07332 whole entry): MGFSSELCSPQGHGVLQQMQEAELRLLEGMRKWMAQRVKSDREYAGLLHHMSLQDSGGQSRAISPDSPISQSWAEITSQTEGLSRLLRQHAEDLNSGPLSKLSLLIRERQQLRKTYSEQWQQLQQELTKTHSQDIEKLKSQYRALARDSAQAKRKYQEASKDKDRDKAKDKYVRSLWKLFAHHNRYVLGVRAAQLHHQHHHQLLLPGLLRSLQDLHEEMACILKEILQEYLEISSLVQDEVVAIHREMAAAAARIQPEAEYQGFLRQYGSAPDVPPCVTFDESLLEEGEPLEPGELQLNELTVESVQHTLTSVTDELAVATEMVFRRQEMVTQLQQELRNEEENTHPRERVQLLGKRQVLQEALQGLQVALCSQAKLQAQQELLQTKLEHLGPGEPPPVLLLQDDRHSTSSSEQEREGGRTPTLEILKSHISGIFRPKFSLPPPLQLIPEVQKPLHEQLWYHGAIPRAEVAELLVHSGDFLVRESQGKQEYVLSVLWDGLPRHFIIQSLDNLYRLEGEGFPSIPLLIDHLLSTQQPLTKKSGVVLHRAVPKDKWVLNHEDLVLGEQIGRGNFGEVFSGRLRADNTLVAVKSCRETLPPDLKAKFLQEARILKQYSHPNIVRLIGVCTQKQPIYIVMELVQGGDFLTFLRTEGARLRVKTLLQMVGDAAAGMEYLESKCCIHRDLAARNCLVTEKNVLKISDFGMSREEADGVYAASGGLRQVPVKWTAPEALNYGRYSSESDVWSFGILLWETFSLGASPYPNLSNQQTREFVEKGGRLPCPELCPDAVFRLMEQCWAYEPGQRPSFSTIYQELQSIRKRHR
Outline: as §1

LRRK2 (G2019S) = molecular target: T4, LRRK2 (G2019S) (Homo sapiens, UniProt Q5S007, G2019S)
T4 construct: purchased Eurofins DiscoverX KINOMEscan
Outline: as §1

ABL1 (H396P)-P = molecular target: T5, ABL1 (H396P)-P (Homo sapiens, UniProt P00519, H396P)
T5 construct: purchased Eurofins DiscoverX KINOMEscan
Outline: as §1

CDK11 = molecular target: T6, CDK11 (Homo sapiens, UniProt Q9BWU1)
T6 construct: purchased Eurofins DiscoverX KINOMEscan
Outline: as §1

TRPM6 = molecular target: T7, TRPM6 (Homo sapiens, UniProt Q9BX84)
T7 construct: purchased Eurofins DiscoverX KINOMEscan
Outline: as §1

MKNK1 = molecular target: T8, MKNK1 (Homo sapiens, UniProt Q9BUB5)
T8 construct: purchased Eurofins DiscoverX KINOMEscan
Outline: as §1

NEK7 = molecular target: T9, NEK7 (Homo sapiens, UniProt Q8TDX7)
T9 construct: purchased Eurofins DiscoverX KINOMEscan
T9 sequence (Q8TDX7 whole entry): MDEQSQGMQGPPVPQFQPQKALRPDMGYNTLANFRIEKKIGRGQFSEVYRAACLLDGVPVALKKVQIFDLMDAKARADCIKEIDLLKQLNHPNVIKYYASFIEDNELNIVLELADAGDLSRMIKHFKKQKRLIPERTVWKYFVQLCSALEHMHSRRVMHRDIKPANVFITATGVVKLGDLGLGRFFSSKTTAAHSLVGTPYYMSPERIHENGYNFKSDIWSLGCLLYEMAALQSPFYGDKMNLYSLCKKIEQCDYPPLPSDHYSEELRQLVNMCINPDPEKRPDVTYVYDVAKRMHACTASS
Outline: as §1

CDC2L1 = molecular target: T10, CDC2L1 (Homo sapiens, UniProt P21127)
T10 construct: purchased Eurofins DiscoverX KINOMEscan
Outline: as §1

PAK3 = molecular target: T11, PAK3 (Homo sapiens, UniProt O75914)
T11 construct: purchased Eurofins DiscoverX KINOMEscan
Outline: as §1

PHKG1 = molecular target: T12, PHKG1 (Homo sapiens, UniProt Q16816)
T12 construct: purchased Eurofins DiscoverX KINOMEscan
Outline: (§2)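 Binding reactions proceed for 1 h at room temperature. Kinase not bound by compound is captured on immobilized affinity ligand and quantified by qPCR; Kd is fitted over 12 half-log concentrations, top 33 μM.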

MKNK2 = molecular target: T13, MKNK2 (Homo sapiens, UniProt Q9HBH9)
T13 construct: purchased Eurofins DiscoverX KINOMEscan
Outline: as §2

MEK1 = molecular target: T14, MEK1 (Homo sapiens, UniProt Q02750)
T14 construct: purchased Eurofins DiscoverX KINOMEscan
Outline: as §1

ABL1 (Q252H)-non-P = molecular target: T15, ABL1 (Q252H)-non-P (Homo sapiens, UniProt P00519, Q252H)
T15 construct: purchased Eurofins DiscoverX KINOMEscan
Outline: as §1

MET (M1250T) = molecular target: T16, MET (M1250T) (Homo sapiens, UniProt P08581, M1250T)
T16 construct: purchased Eurofins DiscoverX KINOMEscan
T16 sequence (P08581 25-1390 M1250T): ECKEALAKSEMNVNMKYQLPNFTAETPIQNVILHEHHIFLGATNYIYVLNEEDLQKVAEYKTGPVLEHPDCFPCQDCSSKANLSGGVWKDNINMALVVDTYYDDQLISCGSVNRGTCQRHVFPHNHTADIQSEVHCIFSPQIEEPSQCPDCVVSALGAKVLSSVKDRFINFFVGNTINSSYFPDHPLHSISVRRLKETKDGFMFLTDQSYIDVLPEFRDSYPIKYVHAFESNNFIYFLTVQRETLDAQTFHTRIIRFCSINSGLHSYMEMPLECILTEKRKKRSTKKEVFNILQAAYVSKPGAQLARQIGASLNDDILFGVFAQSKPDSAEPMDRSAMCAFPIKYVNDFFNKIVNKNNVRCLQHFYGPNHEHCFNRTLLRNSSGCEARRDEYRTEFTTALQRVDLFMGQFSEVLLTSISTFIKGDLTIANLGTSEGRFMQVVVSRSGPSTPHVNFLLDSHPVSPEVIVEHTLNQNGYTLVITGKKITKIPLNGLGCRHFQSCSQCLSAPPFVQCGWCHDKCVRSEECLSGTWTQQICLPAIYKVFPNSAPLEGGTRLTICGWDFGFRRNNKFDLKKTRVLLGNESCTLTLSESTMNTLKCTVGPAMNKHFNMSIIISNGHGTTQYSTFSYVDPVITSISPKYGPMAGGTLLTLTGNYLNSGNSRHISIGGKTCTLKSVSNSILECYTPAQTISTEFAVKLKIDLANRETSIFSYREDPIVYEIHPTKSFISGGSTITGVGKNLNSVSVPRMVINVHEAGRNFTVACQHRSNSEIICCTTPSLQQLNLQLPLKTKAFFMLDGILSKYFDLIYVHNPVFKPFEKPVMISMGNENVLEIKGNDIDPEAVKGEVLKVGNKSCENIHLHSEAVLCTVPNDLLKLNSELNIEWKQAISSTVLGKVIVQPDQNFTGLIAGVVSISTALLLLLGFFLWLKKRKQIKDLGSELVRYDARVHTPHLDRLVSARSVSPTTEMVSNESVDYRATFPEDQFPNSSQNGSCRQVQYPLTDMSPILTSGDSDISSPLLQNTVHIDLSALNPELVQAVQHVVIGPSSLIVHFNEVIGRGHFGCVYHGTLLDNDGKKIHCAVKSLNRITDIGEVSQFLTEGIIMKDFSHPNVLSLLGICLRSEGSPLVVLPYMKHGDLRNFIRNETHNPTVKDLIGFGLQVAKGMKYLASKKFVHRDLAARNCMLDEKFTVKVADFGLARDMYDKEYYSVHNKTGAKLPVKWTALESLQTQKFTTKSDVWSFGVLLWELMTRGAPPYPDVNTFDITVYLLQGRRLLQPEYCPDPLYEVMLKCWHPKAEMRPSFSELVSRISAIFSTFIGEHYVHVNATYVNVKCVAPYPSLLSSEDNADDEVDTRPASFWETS
Outline: as §1

MAP3K4 = molecular target: T17, MAP3K4 (Homo sapiens, UniProt Q9Y6R4)
T17 construct: purchased Eurofins DiscoverX KINOMEscan
Outline: as §2

PIK3CA (E545A) = molecular target: T18, PIK3CA (E545A) (Homo sapiens, UniProt P42336, E545A)
T18 construct: purchased Eurofins DiscoverX KINOMEscan
Outline: as §1

SLK = molecular target: T19, SLK (Homo sapiens, UniProt Q9H2G2)
T19 construct: purchased Eurofins DiscoverX KINOMEscan
Outline: as §1

ERK8 = molecular target: T20, ERK8 (Homo sapiens, UniProt Q8TD08)
T20 construct: purchased Eurofins DiscoverX KINOMEscan
Outline: as §2

ABL1 (E255K)-P = molecular target: T21, ABL1 (E255K)-P (Homo sapiens, UniProt P00519, E255K)
T21 construct: purchased Eurofins DiscoverX KINOMEscan
Outline: as §1

CDC2L2 = molecular target: T22, CDC2L2 (Homo sapiens, UniProt Q9UQ88)
T22 construct: purchased Eurofins DiscoverX KINOMEscan
Outline: as §1

KIT (V559D, T670I) = molecular target: T23, KIT (V559D, T670I) (Homo sapiens, UniProt P10721, T670I/V559D)
T23 construct: purchased Eurofins DiscoverX KINOMEscan
Outline: as §1

PRKG2 = molecular target: T24, PRKG2 (Homo sapiens, UniProt Q13237)
T24 construct: purchased Eurofins DiscoverX KINOMEscan
Outline: as §2

ALK = molecular target: T25, ALK (Homo sapiens, UniProt Q9UM73)
T25 construct: purchased Eurofins DiscoverX KINOMEscan
Outline: as §1

BRSK2 = molecular target: T26, BRSK2 (Homo sapiens, UniProt Q8IWQ3)
T26 construct: purchased Eurofins DiscoverX KINOMEscan
Outline: as §1

ACVR1B = molecular target: T27, ACVR1B (Homo sapiens, UniProt P36896)
T27 construct: purchased Eurofins DiscoverX KINOMEscan
Outline: as §2

RIPK2 = molecular target: T28, RIPK2 (Homo sapiens, UniProt O43353)
T28 construct: purchased Eurofins DiscoverX KINOMEscan
Outline: as §2

GSK3B = molecular target: T29, GSK3B (Homo sapiens, UniProt P49841)
T29 construct: purchased Eurofins DiscoverX KINOMEscan
Outline: as §2

CSF1R-autoinhibited = molecular target: T30, CSF1R-autoinhibited (Homo sapiens, UniProt P07333)
T30 construct: purchased Eurofins DiscoverX KINOMEscan
Outline: as §1

PAK4 = molecular target: T31, PAK4 (Homo sapiens, UniProt O96013)
T31 construct: purchased Eurofins DiscoverX KINOMEscan
Outline: as §1

SIK = molecular target: T32, SIK (Homo sapiens, UniProt P57059)
T32 construct: purchased Eurofins DiscoverX KINOMEscan
Outline: as §2

ABL1 (Q252H)-P = molecular target: T33, ABL1 (Q252H)-P (Homo sapiens, UniProt P00519, Q252H)
T33 construct: purchased Eurofins DiscoverX KINOMEscan
Outline: as §1

PRKCQ = molecular target: T34, PRKCQ (Homo sapiens, UniProt Q04759)
T34 construct: purchased Eurofins DiscoverX KINOMEscan
T34 sequence (Q04759 whole entry): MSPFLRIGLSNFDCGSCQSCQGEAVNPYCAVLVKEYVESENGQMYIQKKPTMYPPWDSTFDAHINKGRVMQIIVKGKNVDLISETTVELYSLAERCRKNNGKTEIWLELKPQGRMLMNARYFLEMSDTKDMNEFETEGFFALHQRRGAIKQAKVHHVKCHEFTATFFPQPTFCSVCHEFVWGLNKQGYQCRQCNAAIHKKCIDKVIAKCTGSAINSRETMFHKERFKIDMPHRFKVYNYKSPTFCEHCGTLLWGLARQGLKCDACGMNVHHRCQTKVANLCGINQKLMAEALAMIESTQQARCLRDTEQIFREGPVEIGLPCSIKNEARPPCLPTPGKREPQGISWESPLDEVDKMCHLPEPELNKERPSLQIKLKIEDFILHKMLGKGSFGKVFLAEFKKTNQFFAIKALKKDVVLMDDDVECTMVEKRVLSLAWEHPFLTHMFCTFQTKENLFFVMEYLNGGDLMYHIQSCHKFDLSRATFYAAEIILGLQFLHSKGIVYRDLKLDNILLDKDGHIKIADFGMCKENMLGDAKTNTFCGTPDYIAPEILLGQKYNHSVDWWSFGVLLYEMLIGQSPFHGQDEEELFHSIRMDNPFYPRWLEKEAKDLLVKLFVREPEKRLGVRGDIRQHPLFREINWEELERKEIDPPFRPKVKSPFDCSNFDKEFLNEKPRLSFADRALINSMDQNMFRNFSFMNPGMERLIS
Outline: as §1

EPHB2 = molecular target: T35, EPHB2 (Homo sapiens, UniProt P29323)
T35 construct: purchased Eurofins DiscoverX KINOMEscan
T35 sequence (P29323 19-1055): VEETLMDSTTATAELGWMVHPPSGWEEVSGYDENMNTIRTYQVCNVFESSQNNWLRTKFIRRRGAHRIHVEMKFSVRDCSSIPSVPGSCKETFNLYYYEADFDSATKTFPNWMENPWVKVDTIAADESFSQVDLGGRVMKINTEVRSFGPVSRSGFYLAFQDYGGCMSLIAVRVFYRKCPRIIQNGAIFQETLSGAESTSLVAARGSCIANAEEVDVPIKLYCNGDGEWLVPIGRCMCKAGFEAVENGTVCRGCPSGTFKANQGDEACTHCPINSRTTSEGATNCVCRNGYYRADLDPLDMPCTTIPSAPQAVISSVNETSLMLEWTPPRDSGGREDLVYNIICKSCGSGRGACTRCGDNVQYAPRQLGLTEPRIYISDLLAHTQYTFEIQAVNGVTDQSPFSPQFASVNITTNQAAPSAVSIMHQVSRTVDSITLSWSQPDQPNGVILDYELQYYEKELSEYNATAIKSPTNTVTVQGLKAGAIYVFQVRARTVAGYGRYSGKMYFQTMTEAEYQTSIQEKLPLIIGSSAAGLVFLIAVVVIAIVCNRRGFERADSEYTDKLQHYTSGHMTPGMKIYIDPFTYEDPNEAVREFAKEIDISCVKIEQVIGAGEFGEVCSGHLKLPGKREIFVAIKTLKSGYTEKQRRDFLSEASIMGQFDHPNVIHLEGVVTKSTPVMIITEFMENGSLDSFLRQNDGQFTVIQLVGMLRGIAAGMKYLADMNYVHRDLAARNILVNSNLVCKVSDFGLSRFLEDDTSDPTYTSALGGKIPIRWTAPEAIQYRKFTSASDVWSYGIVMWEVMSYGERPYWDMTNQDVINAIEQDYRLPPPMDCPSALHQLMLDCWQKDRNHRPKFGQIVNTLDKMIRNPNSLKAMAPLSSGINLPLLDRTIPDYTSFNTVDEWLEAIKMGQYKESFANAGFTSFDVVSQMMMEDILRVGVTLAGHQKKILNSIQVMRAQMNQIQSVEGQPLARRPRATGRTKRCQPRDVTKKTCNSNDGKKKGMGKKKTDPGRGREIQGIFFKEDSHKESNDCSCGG
Outline: as §2

SRPK3 = molecular target: T36, SRPK3 (Homo sapiens, UniProt Q9UPE1)
T36 construct: purchased Eurofins DiscoverX KINOMEscan
Outline: as §1

SIK2 = molecular target: T37, SIK2 (Homo sapiens, UniProt Q9H0K1)
T37 construct: purchased Eurofins DiscoverX KINOMEscan
Outline: as §1

MRCKA = molecular target: T38, MRCKA (Homo sapiens, UniProt Q5VT25)
T38 construct: purchased Eurofins DiscoverX KINOMEscan
Outline: as §1

HIPK4 = molecular target: T39, HIPK4 (Homo sapiens, UniProt Q8NE63)
T39 construct: purchased Eurofins DiscoverX KINOMEscan
Outline: as §2

T1 sequence (Q7KZI7 whole entry): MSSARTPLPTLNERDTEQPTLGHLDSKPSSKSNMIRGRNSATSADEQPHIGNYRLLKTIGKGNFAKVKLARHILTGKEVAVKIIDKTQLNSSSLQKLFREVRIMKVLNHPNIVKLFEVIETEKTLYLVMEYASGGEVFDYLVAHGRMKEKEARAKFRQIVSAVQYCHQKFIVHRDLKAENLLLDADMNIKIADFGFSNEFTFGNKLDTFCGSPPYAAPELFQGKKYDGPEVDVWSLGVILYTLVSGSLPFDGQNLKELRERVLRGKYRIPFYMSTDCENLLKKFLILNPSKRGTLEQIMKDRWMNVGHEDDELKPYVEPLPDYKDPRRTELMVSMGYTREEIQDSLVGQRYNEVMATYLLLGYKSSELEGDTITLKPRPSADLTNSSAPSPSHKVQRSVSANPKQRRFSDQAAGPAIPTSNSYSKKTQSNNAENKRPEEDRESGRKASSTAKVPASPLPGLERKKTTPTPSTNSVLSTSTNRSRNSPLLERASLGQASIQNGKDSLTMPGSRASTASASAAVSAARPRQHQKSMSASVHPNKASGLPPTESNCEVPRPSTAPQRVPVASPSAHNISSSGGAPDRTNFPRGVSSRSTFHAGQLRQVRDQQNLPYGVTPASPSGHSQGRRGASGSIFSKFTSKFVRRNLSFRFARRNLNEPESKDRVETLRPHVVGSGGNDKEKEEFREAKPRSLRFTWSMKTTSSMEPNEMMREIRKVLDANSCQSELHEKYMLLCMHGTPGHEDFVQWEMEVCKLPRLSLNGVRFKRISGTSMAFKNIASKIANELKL

Structure (SMILES): O=C1Nc2c(cc([N+](=O)[O-])c3c2CCCC3)C1=NO [Compound 5d, 3-(Hydroxyimino)-5-nitro-1,3,6,7,8,9-hexahydro-2H-benzo[g]indol-2-one]
- inhibition at 10 µM (MARK2): 36%
- inhibition at 10 µM (LYN): 9%
- inhibition at 10 µM (FES): 0%
- inhibition at 10 µM (LRRK2 (G2019S)): 89%
- inhibition at 10 µM (ABL1 (H396P)-P): 41%
- inhibition at 10 µM (CDK11): 1%
- inhibition at 10 µM (TRPM6): 8%
- inhibition at 10 µM (MKNK1): 72%
- inhibition at 10 µM (NEK7): 26%
- inhibition at 10 µM (CDC2L1): 0%
- inhibition at 10 µM (PAK3): 67%
- inhibition at 10 µM (PHKG1): 0%
- inhibition at 10 µM (MKNK2): 93.2%
- inhibition at 10 µM (MEK1): 93.1%
- inhibition at 10 µM (ABL1 (Q252H)-non-P): 55%
- inhibition at 10 µM (MET (M1250T)): 51%
- inhibition at 10 µM (MAP3K4): 15%
- inhibition at 10 µM (PIK3CA (E545A)): 30%
- inhibition at 10 µM (SLK): 63%
- inhibition at 10 µM (ERK8): 50%
- inhibition at 10 µM (ABL1 (E255K)-P): 57%
- inhibition at 10 µM (CDC2L2): 0%
- inhibition at 10 µM (KIT (V559D, T670I)): 55%
- inhibition at 10 µM (PRKG2): 6%
- inhibition at 10 µM (ALK): 46%
- inhibition at 10 µM (BRSK2): 31%
- inhibition at 10 µM (ACVR1B): 10%
- inhibition at 10 µM (RIPK2): 0%
- inhibition at 10 µM (GSK3B): 29%
- inhibition at 10 µM (CSF1R-autoinhibited): 37%
- inhibition at 10 µM (PAK4): 43%
- inhibition at 10 µM (SIK): 9%
- inhibition at 10 µM (ABL1 (Q252H)-P): 47%
- inhibition at 10 µM (PRKCQ): 7%
- inhibition at 10 µM (EPHB2): 11%
- inhibition at 10 µM (SRPK3): 66%
- inhibition at 10 µM (SIK2): 7%
- inhibition at 10 µM (MRCKA): 17%
- inhibition at 10 µM (HIPK4): 63%
